Patent US20240277732A1, “COMPOSITIONS AND METHODS FOR TREATING BRAIN-GUT DISORDERS” (Enterin, Inc., priority 2018, published 2024)

Key:
[1] = Brain distribution of radiolabeled Aminosterol 1436 after IV or ICV administration; assay type: in vivo; details: rats
Excerpt: The purpose of this example was to evaluate the in vivo distribution of Aminosterol 1436 following intracerebroventricular (ICV) and intravenous (IV) administration to rats. ICV injection is an invasive injection technique of substances directly into the cerebrospinal fluid in cerebral ventricles to bypass the blood brain barrier. The results described below detail how aminosterols such as Aminosterol 1436 localize in the brain following in vivo administration, regardless of the route of administration.
Radiolabeled Aminosterol 1436 was injected into rats by two different forms of administration: ICV and IV administration.

[2] = PK profile IN versus IV bolus; assay type: in vivo; details: rat, 2 mg/kg IV bolus
Excerpt: Thus, the amount of aminosterol in the bloodstream is too low to account for the observed pharmacological effect. This means that when administered IN, an aminosterol is having a pharmacological effect via a mechanism other than via plasma concentration of the drug.

[3] = Intranasal pharmacokinetics in plasma; assay type: in vivo, Sprague Dawley rats; details: Sprague-Dawley, rat, in vivo
Excerpt: The purpose of this example was to evaluate the in vivo distribution and function of aminosterols, such as Aminosterol 1436 and squalamine, following intranasal administration. This experiment relates to the amount of drug needed to obtain a therapeutic result, based on an IN route of administration. The results described below detail that aminosterols such as Aminosterol 1436 act at the level of the hypothalamus following in vivo administration, regardless of the route of administration.

[4] = Weight change after IP or IN administration; assay type: in vivo; details: mice
Experimental: The purpose of this example was to evaluate and compare the impact on weight following administration of an aminosterol such as Aminosterol 1436 to mice via IP or IN.
Mice were administered: (i) intraperitoneally 1 mg/kg or 10 mg/kg of Aminosterol 1436, (ii) intranasally 0.4 mg/kg of Aminosterol 1436, or (iii) a saline control administered IN. Weight of the mice was then measured for 10 days post-administration.

[5] = Brain distribution, food intake and body weight after IP or ICV administration; assay type: in vivo; details: 10 and 40 μg ICV, 5 mg/kg IP
Excerpt: The purpose of this example was to evaluate the in vivo distribution of the aminosterol Aminosterol 1436 following intraperitoneal administration (IP) and ICV administration, and to determine the impact the drug has on food intake and body weight when administered IP and ICV.
Additional data regarding in vivo distribution and the effect of the route of administration for an aminosterol is shown in FIG. 7.
This experiment is relevant as the areas of the brain where the aminosterol Aminosterol 1436 localized upon administration are known to control feeding behavior and appetite.

## CC(C)[C@@H](CC[C@@H](C)[C@H]1CC[C@H]2[C@@H]3[C@H](O)C[C@H]4C[C@@H](NCCCNCCCCNCCCN)CC[C@]4(C)[C@H]3CC[C@]12C)OS(=O)(=O)O [Aminosterol 1436]
[1]; ICV administration
  site of localization in brain: localized to the same regions of the brain
[1]; IV administration
  site of localization in brain: localized in the hypothalamus
[2]
  exposure after IV bolus injection: 190 µg·h/mL
[3]
  blood levels after intranasal versus peripherally injected administration: 10 times
[3]; 0.5 mg/kg
  AUC_% Extrap_obs: 47.6%
  AUClast/D: 18700 kg·ng·h/mL/mg
[4]; 0.4 mg/kg IN
  weight change over 10 days: decrease in the weight of the mice in an amount comparable to 10 mg/kg of intraperitoneally administered Aminosterol 1436
[4]; 1 mg/kg IP
  weight change over 10 days: compared similarly to the intranasally administered saline control
[5]
  effect on food intake over 10 days: significant impact on food intake
  percent change in body weight: decrease in body weight
